Assay type in all cases: binding
The target of experiment [1] is T1, human MDM2 protein (amino acids 2-188) (Homo sapiens, UniProt Q00987).
T1 construct: human MDM2 protein (amino acids 2-188); made in house
Description: p53-MDM2 TR-FRET assay (p53-MDM2 Assay 1). The note with it: 1.25 nM MDM2-biotinylated, 10 nM Cy5-p53 peptide; read-out: IC50 (μM) of p53-Hdm2 inhibition (TR-FRET) Assay 1. The gist of the method:
(§1)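 Peptide displacement read as 665/620 nm TR-FRET ratio (excitation 340 nm) after 15 min room temperature with 10 nM Cy5-p53 aa18-26, following 15 min preincubation of Eu-streptavidin (0.625 nM) with biotinylated MDM4 aa 2-185 (2.5 nM) or MDM2 aa 2-188 (1.25 nM); IC50 curve-fitted. MDM2 Assay 2: MDM2 and Eu-streptavidin each 0.1 nM.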
On the technique in general: In TR-FRET formats the signal depends on donor and acceptor labels being close together.

The target of experiment [2] is T1, human MDM2 protein (amino acids 2-188). Nature of the experiment: p53-MDM2 TR-FRET assay, modified (p53-MDM2 Assay 2). The note with it: 0.1 nM MDM2, 0.1 nM Europium labeled streptavidin; read-out: IC50 (nM) of p53-Hdm2 inhibition (TR-FRET) Assay 2. The gist of the method:
as §1

The target in experiment [3] is T2, human MDM4 protein (amino acids 2-185) (Homo sapiens, UniProt O15151).
T2 construct: human MDM4 protein (amino acids 2-185); made in house
T2 sequence (O15151 2-185): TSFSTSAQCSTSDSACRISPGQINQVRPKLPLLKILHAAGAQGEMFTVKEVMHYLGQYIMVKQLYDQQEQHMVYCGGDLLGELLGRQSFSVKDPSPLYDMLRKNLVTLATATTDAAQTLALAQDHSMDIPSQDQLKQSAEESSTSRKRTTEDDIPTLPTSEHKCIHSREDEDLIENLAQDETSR
Description: p53-MDM4 TR-FRET assay (p53-MDM4 Assay 1). The note with it: 2.5 nM MDM4-biotinylated, 10 nM Cy5-p53 peptide; read-out: IC50 (μM) of p53-Hdm4 inhibition (TR-FRET) Assay 1. The method in brief: as §1

T1 sequence (Q00987 2-188): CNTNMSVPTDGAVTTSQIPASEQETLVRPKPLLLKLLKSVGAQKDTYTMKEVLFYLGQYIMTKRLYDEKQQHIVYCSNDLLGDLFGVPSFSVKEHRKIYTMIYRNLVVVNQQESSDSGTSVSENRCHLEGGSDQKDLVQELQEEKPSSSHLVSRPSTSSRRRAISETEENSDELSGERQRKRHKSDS

With `COc1cc2c(cc1OC(C)C)[C@H](c1ccc(Cl)cc1)N(c1ccc(C(C)(O)C3CC4CCCC(C3)N4C=O)cc1)C(=O)C2` (stereo partly drawn) [Example 117, 3-(1-{4-[(S)-1-(4-Chloro-phenyl)-7-isopropoxy-6-methoxy-3-oxo-3,4-dihydro-1H-isoquinolin-2-yl]-phenyl}-1-hydroxy-ethyl)-9-aza-bicyclo[3.3.1]nonane-9-carbaldehyde], the IC50 in experiment [1] was 0.0028 µM; in experiment [2], 1.6 nM; in experiment [3], 2.88 µM.
Taken in the same sequence, the figures for `COc1cc2c(cc1OC(C)C)[C@H](c1ccc(Cl)cc1)N(c1ccc(C(C)(O)C3CC4CCCC(C3)N4CC(F)(F)F)cc1)C(=O)C2` (stereo partly drawn) [Example 118, (S)-1-(4-Chloro-phenyl)-2-(4-{1-hydroxy-1-[9-(2,2,2-trifluoro-ethyl)-9-aza-bicyclo[3.3.1]non-3-yl]-ethyl}-phenyl)-7-isopropoxy-6-methoxy-1,4-dihydro-2H-isoquinolin-3-one] were 0.0129 µM, 13.7 nM and 25.1 µM.
Taken in the same sequence, the figures for `COc1cc2c(cc1OC(C)C)[C@H](c1ccc(Cl)cc1)N(c1ccc(C(C)(O)C3CC4CCCC(C3)O4)cc1)C(=O)C2` (stereo partly drawn) [Example 161, (S)-1-(4-Chloro-phenyl)-2-{4-[1-hydroxy-1-(9-oxa-bicyclo[3.3.1]non-3-yl)-ethyl]-phenyl}-7-isopropoxy-6-methoxy-1,4-dihydro-2H-isoquinolin-3-one] were 0.0041 µM, 3.72 nM and 4.52 µM.
Taken in the same sequence, the figures for `COc1cc2c(cc1OC(C)C)[C@H](c1ccc(Cl)cc1)N(c1ccc([C@@](C)(O)C3CCS(=O)(=O)CC3)cc1)C(=O)C2` [Example 168, (S)-1-(4-Chloro-phenyl)-2-{4-[(S)-1-(1,1-dioxo-hexahydro-1-thiopyran-4-yl)-1-hydroxy-ethyl]-phenyl}-7-isopropoxy-6-methoxy-1,4-dihydro-2H-isoquinolin-3-one] were 0.0015 µM, 1.25 nM and 1.96 µM.
For `COc1cc2c(cc1OC(C)C)[C@H](c1ccc(Cl)cc1)N(c1ccc([C@@](C)(O)C3CC4CCC(C3)S4(=O)=O)cc1)C(=O)C2` (stereo partly drawn) [Example 174, (S)-1-(4-Chloro-phenyl)-2-{4-[(S)-1-(8,8-dioxo-8-thia-bicyclo[3.2.1]oct-3-yl)-1-hydroxy-ethyl]-phenyl}-7-isopropoxy-6-methoxy-1,4-dihydro-2H-isoquinolin-3-one], the results for the IC50 in experiment [1], in experiment [2] and in experiment [3] were 0.0009 µM, 0.961 nM and 1.17 µM, respectively.

By IC50 is commonly meant the midpoint of a concentration-inhibition curve.
